Assay results from publication PMC11492426, “Design, synthesis, and biological evaluation of novel quinoline-based EGFR/HER-2 dual-target inhibitors as potential anti-tumor agents” (RSC Advances, 2024).

Tests used:
[1] = test system: A-549 lung cancer cell line; assay: Antiproliferative assay, A-549; format: cell-based; details: Homo sapiens, A549; A-549 lung cancer cells; read-out: Antiproliferative activity IC50 ± SEM, A-549
HER2 = HER2 (Homo sapiens, UniProt P04626); assay: HER2 inhibitory assay (ADP-Glo kinase assay)
Caspase-8 = Caspase-8 activation assay in MCF-7 cells; format: cell-based, human; details: for Caspase-8 Conc.: treated at IC50 concentration; for Caspase-8 Fold change: versus untreated control
[2] = test system: MCF-7 breast cancer cell line; assay: Antiproliferative assay, MCF-7; format: cell-based; details: Homo sapiens, MCF7; MCF-7 breast cancer cells; read-out: Antiproliferative activity IC50 ± SEM, MCF-7
[3] = Cell viability assay (MTT) on MCF-10A normal cells; format: cell-based; details: human, MCF-10A mammary gland epithelial normal cells, MCF-10A cells, four-day incubation
Description: The impact of compounds 3a–h and 5a–d on cell viability was evaluated using the human mammary (MCF-10A) gland epithelium normal cell line. The MTT assay was used to evaluate the cell viability of 3a–h and 5a–d after a four-day incubation period on MCF-10A cells.[46] Refer to Appendix A for more details.
The effect of new compounds 3a–h and 5a–d on cell viability was evaluated using the MCF-10A (human mammary gland epithelium) normal cell line.
4.2. Biological evaluation
4.2.1 Cell Viability assay (MTT assay)
MTT assay was performed to investigate the effect of the synthesized compounds on mammary epithelial cells (MCF-10A). The cells were propagated in medium consisting of Ham's F-12 medium/ Dulbecco's modified Eagle's medium (DMEM) (1:1) supplemented with 10% foetal calf serum, 2 mM glutamine, insulin (10 μg/mL), hydrocortisone (500 ng/mL) and epidermal growth factor (20 ng/mL). Trypsin ethylenediamine tetra acetic acid (EDTA) was used to passage the cells after every 2-3 days. 96-well flat-bottomed cell culture plates were used to seed the cells at a density of 10^4 cells mL-1. The medium was aspirated from all the wells of culture plates after 24 h followed by the addition of synthesized compounds (in 200 μL medium to yield a final concentration of 0.1% (v/v) dimethyl sulfoxide) into individual wells of the plates. Four wells were designated to a single compound. The plates were allowed to incubate at 37°C for 96 h. Afterwards, the medium was aspirated and 3-[4,5-dimethylthiazol-2-yl]-2,5-diphenyltetrazolium bromide (MTT) (0.4 mg/mL) in medium was added to each well and subsequently incubated for 3 h. The medium was aspirated and 150 μL dimethyl sulfoxide (DMSO) was added to each well. The plates were vortexed followed by the measurement of absorbance at 540 nm on a microplate reader. The results were presented as inhibition (%) of proliferation in contrast to controls comprising 0.1% DMSO.

[4] = test system: four human cancer cell lines (A-549, MCF-7, Panc-1, HT-29); assay: Antiproliferative assay, average over four cancer cell lines; format: cell-based; details: Homo sapiens, average IC50 over the four cancer cell lines
Caspase-3 = Caspase-3 activation assay in MCF-7 cells; format: cell-based, human; details: for Caspase-3 Conc.: treated at IC50 concentration; for Caspase-3 Fold change: versus untreated control
EGFR = EGFR (Homo sapiens, UniProt P00533); assay: EGFR inhibitory assay (EGFR-TK assay)
Bcl-2 = Bcl-2 inhibition assay in MCF-7 cells; format: cell-based, human; details: for Bcl-2 Conc.: treated at IC50 values
Description: Additionally, the treatment led to a notable reduction in anti-apoptotic Bcl-2 expression levels, with a fold decrease of roughly 6 for compound 3e and 8 for compound 5a. Compounds 3e and 5a markedly elevated the Bax/Bcl-2 ratio compared to the control untreated cells. […]
4.2.8. Bcl-2 inhibition assay
Mix all reagents thoroughly without foaming before use. Wash the microwells twice with approximately 300 μL Wash Buffer per well with thorough aspiration of microwell contents between washes. Take caution not to scratch the surface of the microwells. After the last wash, empty the wells and tap microwell strips on absorbent pad or paper towel to remove excess Wash Buffer. Use the microwell strips immediately after washing or place upside down on a wet absorbent paper for not […]
longer than 15 minutes. […] Add 100 μL of Sample Diluent in duplicate to all standard wells and to the blank wells. Prepare standard (1:2 dilution) in duplicate ranging from 32 ng/mL to 0.5 ng/mL. Add 100 μL of Sample Diluent, in duplicate, to the blank wells. Add 80 μL of Sample Diluent, in duplicate, to the sample wells. Add 20 μL of each Sample, in duplicate, to the designated wells. Add 50 μL of diluted biotin-conjugate to all wells, including the blank wells. Cover with a plate cover and incubate at room temperature, on a microplate shaker at 100 rpm if available, for 2 hours. Remove plate cover and empty the wells. Wash microwell strips 3 times as described in step 2. Add 100 μL of diluted Streptavidin-HRP to all wells, including the blank wells. Cover with a plate cover and incubate at room temperature, on a microplate shaker at 100 rpm if available, for 1 hour. Remove plate cover and empty the wells. Wash microwell strips 3 times as described in step 2.
Proceed to the next step. Pipette 100 μl of mixed TMB Substrate Solution to all wells, including the blanks. Incubate the microwell strips at room temperature (18° to 25°C) for about 15 minutes, if available on a rotator set at 100 rpm. Avoid direct exposure to intense light. The point, at which the substrate reaction is stopped, is often determined by the ELISA reader. Many ELISA readers record absorbance only up to 2.0 O.D. Therefore, the color development within individual microwells must be watched by the person running the assay and the substrate reaction stopped before positive wells are no longer properly detectable. Stop the enzyme reaction by quickly pipetting 100 μL of Stop Solution into each well, including the blank wells. It is important that the Stop Solution is spread quickly and uniformly throughout the microwells to completely inactivate the enzyme. Results must be read immediately after the Stop Solution is added or within one hour if the microwell strips are stored at 2 - 8°C in the dark. Read absorbance of each microwell on a spectrophotometer using 450 nm as the primary wavelength.
4.3. Statistical analysis
Computerized Prism 5 program was used to statistically analyzed data using one-way ANOVA test followed by Tukey’s as post ANOVA for multiple comparison at P ≤.05. Data were presented as […]

[5] = test system: Panc-1 pancreatic cancer cell line; assay: Antiproliferative assay, Panc-1; format: cell-based; details: Homo sapiens; Panc-1 pancreatic cancer cells; read-out: Antiproliferative activity IC50 ± SEM, Panc-1
[6] = test system: HT-29 colon cancer cell line; assay: Antiproliferative assay, HT-29; format: cell-based; details: Homo sapiens; HT-29 colon cancer cells; read-out: Antiproliferative activity IC50 ± SEM, HT-29

Chain of EGFR (P00533 669-1210): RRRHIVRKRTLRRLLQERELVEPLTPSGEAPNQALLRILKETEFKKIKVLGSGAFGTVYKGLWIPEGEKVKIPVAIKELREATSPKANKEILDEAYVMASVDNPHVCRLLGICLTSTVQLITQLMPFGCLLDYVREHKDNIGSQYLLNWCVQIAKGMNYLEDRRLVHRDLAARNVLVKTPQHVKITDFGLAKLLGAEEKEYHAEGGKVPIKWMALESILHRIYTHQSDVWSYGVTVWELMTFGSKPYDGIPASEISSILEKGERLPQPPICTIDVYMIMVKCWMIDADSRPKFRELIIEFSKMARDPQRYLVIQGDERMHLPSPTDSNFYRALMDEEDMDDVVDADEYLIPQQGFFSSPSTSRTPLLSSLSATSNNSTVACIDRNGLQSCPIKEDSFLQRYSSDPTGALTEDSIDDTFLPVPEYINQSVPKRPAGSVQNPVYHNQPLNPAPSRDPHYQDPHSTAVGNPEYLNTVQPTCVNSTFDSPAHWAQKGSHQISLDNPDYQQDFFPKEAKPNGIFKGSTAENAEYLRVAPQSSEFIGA
Chain of HER2 (P04626 676-1255 limits assumed): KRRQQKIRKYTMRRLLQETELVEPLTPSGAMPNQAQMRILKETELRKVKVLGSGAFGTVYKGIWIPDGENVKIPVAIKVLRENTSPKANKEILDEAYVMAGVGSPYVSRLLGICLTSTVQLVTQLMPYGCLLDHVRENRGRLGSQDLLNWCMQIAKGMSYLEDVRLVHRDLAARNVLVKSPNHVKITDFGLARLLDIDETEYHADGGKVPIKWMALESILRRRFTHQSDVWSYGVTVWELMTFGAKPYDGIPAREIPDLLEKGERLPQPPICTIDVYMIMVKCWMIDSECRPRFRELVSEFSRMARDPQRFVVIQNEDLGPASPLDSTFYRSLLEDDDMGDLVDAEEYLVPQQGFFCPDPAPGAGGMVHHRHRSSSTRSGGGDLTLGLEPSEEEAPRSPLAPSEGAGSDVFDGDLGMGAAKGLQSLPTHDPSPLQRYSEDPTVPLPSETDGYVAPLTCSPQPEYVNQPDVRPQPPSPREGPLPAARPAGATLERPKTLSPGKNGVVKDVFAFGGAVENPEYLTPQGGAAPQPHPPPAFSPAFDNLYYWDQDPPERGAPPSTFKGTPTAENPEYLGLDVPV

For `O=c1[nH]c2ccccc2c(O)c1/C=N/c1nc(-c2ccncc2)n[nH]1` [Compound 3e, (E)-4-hydroxy-3-(((3-(pyridin-4-yl)-1H-1,2,4-triazol-5-yl)imino)methyl)quinolin-2(1H)-one], the IC50 [1] was 32 ± 3 nM, the IC50 (HER2) was 39 ± 2 nM and the “Caspase-8 Conc.” value (Caspase-8) was 1.65 ± 0.20 ng/mL. The “Caspase-8 Fold change” value (Caspase-8) was 19, the IC50 [2] was 31 ± 3 nM and the viability at 96 h, 50 µM [3] was 86%. The GI50 [4] was 33 nM, the “Caspase-3 Conc.” value (Caspase-3) was 587 ± 5 pg/mL and the “Caspase-3 Fold change” value (Caspase-3) was 9. The IC50 (EGFR) was 79 ± 5 nM, the “Bcl-2 Conc.” value (Bcl-2) was 0.84 ng/mL and the IC50 [5] was 34 ± 3 nM. It also gave an IC50 [6] of 34 ± 3 nM.
With `O=c1[nH]c2ccccc2c(O)c1C=Nc1ccc(NS(=O)(=O)c2ncccn2)cc1` [Compound 5a, N-(4-(((4-hydroxy-2-oxo-1,2-dihydroquinolin-3-yl)methylene)amino)phenyl) pyrimidine-2-sulfonamide] the IC50 [1] was 25 ± 2 nM, the IC50 (HER2) was 31 ± 2 nM and the “Caspase-8 Conc.” value (Caspase-8) was 1.70 ± 0.15 ng/mL. For the same molecule, the “Caspase-8 Fold change” value (Caspase-8) was 21, the IC50 [2] was 23 ± 2 nM and the viability at 96 h, 50 µM [3] was 87%. The GI50 [4] was 25 nM, the “Caspase-3 Conc.” value (Caspase-3) was 710 ± 6 pg/mL and the “Caspase-3 Fold change” value (Caspase-3) was 11. For the same molecule, the IC50 (EGFR) was 71 ± 4 nM, the “Bcl-2 Conc.” value (Bcl-2) was 0.62 ng/mL and the “Bcl-2 Fold reduction” value (Bcl-2; versus untreated control) was about 8. It also gave an IC50 [5] of 26 ± 2 nM and an IC50 [6] of 26 ± 2 nM.
